pKi: −log10 of the molar value.
Each molecule was assayed against T1, PknB (Mycobacterium tuberculosis, UniProt P9WI81) (assay: biochemical). Conditions: 3 nM PknB, 6 uM GarA, 3 μM ATP, 30 min; competitive tight-binding fit; several symbols in a cell = repeat determinations.
T1 construct: made in house
T1 sequence (P9WI81 whole entry): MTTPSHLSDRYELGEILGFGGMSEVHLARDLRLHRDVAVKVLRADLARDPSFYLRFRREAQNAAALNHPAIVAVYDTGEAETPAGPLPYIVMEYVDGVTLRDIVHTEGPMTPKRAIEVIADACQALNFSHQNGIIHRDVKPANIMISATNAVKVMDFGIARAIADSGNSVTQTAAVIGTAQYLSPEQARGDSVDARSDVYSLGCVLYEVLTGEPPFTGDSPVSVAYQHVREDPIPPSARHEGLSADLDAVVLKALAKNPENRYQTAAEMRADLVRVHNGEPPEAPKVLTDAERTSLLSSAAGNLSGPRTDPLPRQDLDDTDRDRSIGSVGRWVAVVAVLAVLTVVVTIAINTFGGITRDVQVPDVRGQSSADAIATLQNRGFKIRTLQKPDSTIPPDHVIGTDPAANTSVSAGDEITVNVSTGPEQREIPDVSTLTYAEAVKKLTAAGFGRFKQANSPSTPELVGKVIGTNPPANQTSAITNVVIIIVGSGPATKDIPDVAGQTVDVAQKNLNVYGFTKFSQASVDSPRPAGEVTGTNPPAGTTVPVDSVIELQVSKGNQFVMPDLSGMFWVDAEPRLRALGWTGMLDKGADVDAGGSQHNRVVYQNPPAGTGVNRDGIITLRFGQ
Set-up: species or system M. tuberculosis
In the case of `NC(=O)c1ccc(Nc2nccc(Nc3cc(C4CC4)n[nH]3)n2)cc1` [Compound 60, 4-[[4-[(5-cyclopropyl-2H-pyrazol-3-yl)amino]pyrimidin-2-yl]amino]benzamide], the “Ki Values” was “C, C, D”. In the case of `O=S(=O)(NCCO)c1ccc(-c2ncc(Cl)c(Nc3cc(C4CC4)[nH]n3)n2)cc1` [Compound 61, 4-[5-chloro-4-[(5-cyclopropyl-1H-pyrazol-3-yl)amino]-pyrimidin-2-yl]-N-(2-hydroxyethyl)benzenesulfonamide], the “Ki Values” was “A, C, D”. `c1cc(Nc2cc(C3CC3)[nH]n2)nc(N2CCCCC2)n1` [Compound 64, N-(5-cyclopropyl-1H-pyrazol-3-yl)-2-(1-piperidyl)pyrimidin-4-amine] was tested, and the “Ki Values” was “A*, B**”. With `c1cc(Nc2cc(C3CC3)[nH]n2)nc(N2CCC(N3CCCCC3)CC2)n1` [Compound 65, N-(5-cyclopropyl-1H-pyrazol-3-yl)-2-[4-(1-piperidyl)-1-piperidyl]-pyrimidin-4-amine] the “Ki Values” was “C, D, D”. For `COc1cnc(N2CCCCC2)nc1Nc1cc(C2CC2)[nH]n1` [Compound 68, N-(5-cyclopropyl-1H-pyrazol-3-yl)-5-methoxy-2-(1-piperidyl)pyrimidin-4-amine], the “Ki Values” was “A, B**”. For `CC(C)(O)c1ccc(-c2ncc(Cl)c(Nc3cc(C4CC4)[nH]n3)n2)s1` [Compound 87, 2-(5-(5-chloro-4-(5-cyclopropyl-1H-pyrazol-3-ylamino)pyrimidin-2-yl)thiophen-2-yl)propan-2-ol], the “Ki Values” was “A**, A*”. With `O=S(=O)(NCCO)c1cccc(-c2ncc(Cl)c(Nc3cc(C4CC4)[nH]n3)n2)c1` [Compound 95, 3-[5-chloro-4-[(5-cyclopropyl-1H-pyrazol-3-yl)amino]-pyrimidin-2-yl]-N-(2-hydroxyethyl)benzenesulfonamide] the “Ki Values” was “A*, A”. With `C#Cc1cnc(Nc2ccc(CC#N)cc2)nc1Nc1cc(C2CC2)[nH]n1` [Compound 101, 2-(4-(4-(5-Cyclopropyl-1H-pyrazol-3-ylamino)-5-ethynylpyrimidin-2-ylamino)phenyl)acetonitrile] the “Ki Values” was “A*, A*, A”. With `O=C(NC1CCCCC1)c1nccc(Nc2cc(C3CC3)n[nH]2)n1` [Compound 109, N-cyclohexyl-4-[(5-cyclopropyl-2H-pyrazol-3-yl)amino]pyrimidine-2-carboxamide] the “Ki Values” was “B, B*”. With `CC(=O)c1ccc(-c2ncc(Cl)c(Nc3cc(C4CC4)[nH]n3)n2)s1` [Compound 116, 1-(5-(5-chloro-4-(5-cyclopropyl-1H-pyrazol-3-ylamino)pyrimidin-2-yl)thiophen-2-yl)ethanone] the “Ki Values” was “A**, A*”. `C[C@H](O)c1ccc(-c2ncc(Cl)c(Nc3cc(C4CC4)[nH]n3)n2)s1` [Compound 132, (S)-1-(5-(4-(5-cyclopropyl-1H-pyrazol-3-ylamino)-5-chloropyrimidin-2-yl)thiophen-2-yl)ethanol] was tested, and the “Ki Values” was “A**, A*”.

Same assay, conditions: 3 nM PknB, 6 uM GarA, 3 μM ATP, 30 min; competitive tight-binding fit; several symbols in a cell = repeat determinations; read-out: Ki Values
For `Clc1cnc(Nc2ccc3[nH]ncc3c2)nc1Nc1cc(C2CC2)[nH]n1` [Compound 62, 5-chloro-N4-(5-cyclopropyl-1H-pyrazol-3-yl)-N2-(1H-indazol-5-yl)pyrimidine-2,4-diamine], the pKi was < 5.40. In the case of `COCc1cnc(N2CCN(C)CC2)nc1Nc1cc(C2CC2)[nH]n1` [Compound 69, N-(5-cyclopropyl-1H-pyrazol-3-yl)-5-(methoxymethyl)-2-(4-methylpiperazin-1-yl)-pyrimidin-4-amine], the pKi was < 5.40. With `COCc1cnc(N2CCCCC2)nc1Nc1cc(C2CC2)[nH]n1` [Compound 70, N-(5-cyclopropyl-1H-pyrazol-3-yl)-5-(methoxymethyl)-2-(1-piperidyl)pyrimidin-4-amine] the pKi was < 5.40. `COCc1cnc(N2CCC(N3CCCCC3)CC2)nc1Nc1cc(C2CC2)[nH]n1` [Compound 71, N-(5-cyclopropyl-1H-pyrazol-3-yl)-5-(methoxymethyl)-2-[4-(1-piperidyl)-1-piperidyl]-pyrimidin-4-amine] was tested, and the pKi was 5.70 to 6.00. With `CCCc1cnc(N2CCN(C)CC2)nc1Nc1cc(C2CC2)[nH]n1` [Compound 72, N-(5-cyclopropyl-1H-pyrazol-3-yl)-2-(4-methylpiperazin-1-yl)-5-propyl-pyrimidin-4-amine] the pKi was < 5.40. `O=C(O)c1cccc(Nc2ncc(Cl)c(Nc3cc(C4CC4)[nH]n3)n2)c1` [Compound 73, 3-[[5-chloro-4-[(5-cyclopropyl-1H-pyrazol-3-yl)amino]-pyrimidin-2-yl]amino]benzoic acid] gave a pKi of 6.30 to 7.00. Work on `NCCNS(=O)(=O)c1ccc(-c2ncc(Cl)c(Nc3cc(C4CC4)[nH]n3)n2)s1` [Compound 75, N-(2-aminoethyl)-5-(5-chloro-4-(5-cyclopropyl-1H-pyrazol-3-ylamino)pyrimidin-2-yl)thiophene-2-sulfonamide] yielded a pKi of 8.00 to 9.00. Work on `Cc1cc(Nc2ccnc(Nc3ccc(S(N)(=O)=O)cc3)n2)[nH]n1` [Compound 76, 4-[[4-[(5-methyl-2H-pyrazol-3-yl)amino]pyrimidin-2-yl]amino]benzenesulfonamide] yielded a pKi of 7.30 to 8.00. Molecule `NS(=O)(=O)c1cccc(Nc2nccc(Nc3cc(C4CC4)n[nH]3)n2)c1` [Compound 82] has a pKi of 7.00 to 7.30. For `N#Cc1ccc(Nc2ncc(Cl)c(Nc3cc(C4CC4)[nH]n3)n2)cc1` [Compound 84, 4-[[5-chloro-4-[(5-cyclopropyl-1H-pyrazol-3-yl)amino]-pyrimidin-2-yl]amino]benzonitrile], the pKi was 7.30 to 8.00. Molecule `C#Cc1cnc(-c2ccc(CC#N)cc2)nc1Nc1cc(C2CC2)[nH]n1` [Compound 85, 2-(4-(4-(5-cyclopropyl-1H-pyrazol-3-ylamino)-5-ethynylpyrimidin-2-yl)phenyl)acetonitrile] has a pKi of 7.30 to 8.00. `N#Cc1cccc(Nc2ncc(Cl)c(Nc3cc(C4CC4)[nH]n3)n2)c1` [Compound 89, 3-[[5-chloro-4-[(5-cyclopropyl-1H-pyrazol-3-yl)amino]-pyrimidin-2-yl]amino]benzonitrile] was tested, and the pKi was 6.30 to 7.00. Work on `N#CCc1ccc(-c2ncc(N)c(Nc3cc(C4CC4)[nH]n3)n2)cc1` [Compound 92, 2-(4-(5-amino-4-(5-cyclopropyl-1H-pyrazol-3-ylamino)pyrimidin-2-yl)phenyl)acetonitrile] yielded a pKi of 7.30 to 8.00. `CC(=O)NCCNS(=O)(=O)c1cccc(-c2ncc(Cl)c(Nc3cc(C4CC4)[nH]n3)n2)c1` [Compound 96, N-[2-[[3-[5-chloro-4-[(5-cyclopropyl-1H-pyrazol-3-yl)amino]-pyrimidin-2-yl]phenyl]sulfonylamino]ethyl]acetamide] gave a pKi of 7.30 to 8.00. With `CN(C)CCNS(=O)(=O)c1cccc(-c2ncc(Cl)c(Nc3cc(C4CC4)[nH]n3)n2)c1` [Compound 97, 3-[5-chloro-4-[(5-cyclopropyl-1H-pyrazol-3-yl)amino]-pyrimidin-2-yl]-N-(2-dimethylaminoethyl)benzenesulfonamide] the pKi was 7.30 to 8.00. Work on `Nc1cccc(Nc2nccc(Nc3cc(C4CC4)n[nH]3)n2)c1` [Compound 100, N-(3-aminophenyl)-N′-(5-cyclopropyl-2H-pyrazol-3-yl)-pyrimidine-2,4-diamine] yielded a pKi of 6.30 to 7.00. Work on `CC(C)(C)NS(=O)(=O)c1cccc(-c2ncc(O)c(Nc3cc(C4CC4)n[nH]3)n2)c1` [Compound 102, N-tert-butyl-3-(4-(3-cyclopropyl-1H-pyrazol-5-ylamino)-5-hydroxypyrimidin-2-yl)benzenesulfonamide] yielded a pKi of 7.00 to 7.30. Work on `C#Cc1cnc(-c2cccc(S(N)(=O)=O)c2)nc1Nc1cc(C2CC2)[nH]n1` [Compound 110, 3-(4-(5-cyclopropyl-1H-pyrazol-3-ylamino)-5-ethynylpyrimidin-2-yl)benzene sulfonamide] yielded a pKi of 7.30 to 8.00. Molecule `CC(=O)NCCNS(=O)(=O)c1ccc(-c2ncc(Cl)c(Nc3cc(C4CC4)[nH]n3)n2)s1` [Compound 118, N-(2-(5-(5-chloro-4-(5-cyclopropyl-1H-pyrazol-3-ylamino)pyrimidin-2-yl)thiophene-2-sulfonamido)ethyl)acetamide] has a pKi of 7.30 to 8.00. With `C#Cc1cnc(-c2ccc(C(=C)C)s2)nc1Nc1cc(C2CC2)n[nH]1` [Compound 119, N-(5-cyclopropyl-2H-pyrazol-3-yl)-5-ethynyl-2-(5-isopropenyl-2-thienyl)-pyrimidin-4-amine] the pKi was 7.30 to 8.00. Work on `NS(=O)(=O)c1ccccc1Nc1nccc(Nc2cc(C3CC3)[nH]n2)n1` [Compound 120, 2-[[4-[(5-cyclopropyl-1H-pyrazol-3-yl)amino]pyrimidin-2-yl]amino]benzenesulfonamide] yielded a pKi of 6.30 to 7.00. In the case of `NS(=O)(=O)c1ccc(-c2ncc(Cl)c(Nc3cc(C4CC4)[nH]n3)n2)cc1` [Compound 121, 4-[5-chloro-4-[(5-cyclopropyl-1H-pyrazol-3-yl)amino]-pyrimidin-2-yl]benzenesulfonamide], the pKi was 7.30 to 8.00. For `C#Cc1cnc(-c2cccc(S(=O)(=O)NCCO)c2)nc1Nc1cc(C2CC2)[nH]n1` [Compound 122, 3-(4-(3-Cyclopropyl-1H-pyrazol-5-ylamino)-5-ethynylpyrimidin-2-yl)-N-(2-hydroxyethyl)benzene sulfonamide], the pKi was 7.30 to 8.00. Work on `NC(=O)c1cccc(Nc2nccc(Nc3cc(C4CC4)[nH]n3)n2)c1` [Compound 125, 3-[[4-[(5-cyclopropyl-1H-pyrazol-3-yl)amino]pyrimidin-2-yl]amino]benzamide] yielded a pKi of 6.00 to 6.30. In the case of `CNS(=O)(=O)c1cccc(-c2ncc(Cl)c(Nc3cc(C4CC4)[nH]n3)n2)c1` [Compound 127, 3-[5-chloro-4-[(5-cyclopropyl-1H-pyrazol-3-yl)amino]-pyrimidin-2-yl]-N-methyl-benzenesulfonamide], the pKi was 7.30 to 8.00. `C#Cc1cnc(-c2ccc(CC#N)s2)nc1Nc1cc(C2CC2)n[nH]1` [Compound 130, 2-(5-(4-(3-Cyclopropyl-1H-pyrazol-5-ylamino)-5-ethynylpyrimidin-2-yl)thiophen-2-yl)acetonitrile] was tested, and the pKi was 8.00 to 9.00. In the case of `CN(CCO)S(=O)(=O)c1cccc(-c2ncc(Cl)c(Nc3cc(C4CC4)[nH]n3)n2)c1` [Compound 134, 3-[5-chloro-4-[(5-cyclopropyl-1H-pyrazol-3-yl)amino]-pyrimidin-2-yl]-N-(2-hydroxyethyl)-N-methyl-benzenesulfonamide], the pKi was 7.30 to 8.00. `O=S(=O)(c1ccc(-c2ncc(Cl)c(Nc3cc(C4CC4)[nH]n3)n2)s1)N1CCNCC1` [Compound 135, 5-chloro-N-(5-cyclopropyl-1H-pyrazol-3-yl)-2-(5-piperazin-1-ylsulfonyl-2-thienyl)-pyrimidin-4-amine] gave a pKi of 7.30 to 8.00.
